# Laboratory results as given in the kinase profiling compilation of Christmann-Franck et al. (2016).
# Tests used:
# Test in all cases: KINOMEscan competition binding
# Conditions in all cases: compound 0.5 µM
# ACVR1B (human) = ACVR1B (human) (UniProt P36896)
# PAK4 (human) = PAK4 (human) (UniProt O96013)
# PLK3 (human) = PLK3 (human) (UniProt Q9H4B4)
# CLK3 (human) = CLK3 (human) (UniProt P49761)
# CAMK2A (human) = CAMK2A (human) (UniProt Q9UQM7)
# RPS6KA3 KD1 (human) = RPS6KA3 KD1 (human) (UniProt P51812)
# MAPK11 (human) = MAPK11 (human) (UniProt Q15759)
# Sequence of MAPK11 (human) (Q15759 whole entry, looked up): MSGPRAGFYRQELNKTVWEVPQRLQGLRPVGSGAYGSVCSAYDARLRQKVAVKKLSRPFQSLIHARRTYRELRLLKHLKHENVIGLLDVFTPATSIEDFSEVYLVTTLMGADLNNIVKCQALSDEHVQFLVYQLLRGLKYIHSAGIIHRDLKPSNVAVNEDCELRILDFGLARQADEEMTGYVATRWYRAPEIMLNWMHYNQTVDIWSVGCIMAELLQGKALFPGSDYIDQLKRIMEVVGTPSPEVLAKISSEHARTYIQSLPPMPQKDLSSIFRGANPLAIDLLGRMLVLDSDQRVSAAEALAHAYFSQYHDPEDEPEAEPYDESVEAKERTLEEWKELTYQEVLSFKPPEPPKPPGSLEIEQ
# [1] = system: PIK3CA (human), P42336 [E545A]
# [2] = system: EIF2AK4 KD2 (human), Q9P2K8 [S808G]
# AKT1 (human) = AKT1 (human) (UniProt P31749)
# NEK1 (human) = NEK1 (human) (UniProt Q96PY6)
# CRK2 (P.falciparum) = CRK2 (P.falciparum) (UniProt P61075)
# Sequence of CRK2 (P.falciparum) (P61075 whole entry, looked up): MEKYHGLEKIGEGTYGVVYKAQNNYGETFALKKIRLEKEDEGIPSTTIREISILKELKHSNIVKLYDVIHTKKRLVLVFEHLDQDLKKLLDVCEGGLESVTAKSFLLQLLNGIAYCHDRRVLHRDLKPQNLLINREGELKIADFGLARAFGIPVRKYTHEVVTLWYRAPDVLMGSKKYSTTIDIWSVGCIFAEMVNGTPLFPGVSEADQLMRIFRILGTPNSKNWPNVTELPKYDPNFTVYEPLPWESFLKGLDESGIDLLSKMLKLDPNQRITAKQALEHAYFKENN
# MAPK1 (human) = MAPK1 (human) (UniProt P28482)
# Sequence of MAPK1 (human) (P28482 whole entry, looked up): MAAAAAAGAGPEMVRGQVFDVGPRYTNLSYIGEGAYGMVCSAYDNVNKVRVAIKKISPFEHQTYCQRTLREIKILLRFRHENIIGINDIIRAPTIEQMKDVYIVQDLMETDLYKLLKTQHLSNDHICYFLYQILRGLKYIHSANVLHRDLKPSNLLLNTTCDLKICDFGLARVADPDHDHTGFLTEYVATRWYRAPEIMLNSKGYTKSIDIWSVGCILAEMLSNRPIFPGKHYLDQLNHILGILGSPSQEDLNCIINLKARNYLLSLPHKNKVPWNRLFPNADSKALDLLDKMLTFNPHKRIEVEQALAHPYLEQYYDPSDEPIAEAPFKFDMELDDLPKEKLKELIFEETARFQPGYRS
# STK25 (human) = STK25 (human) (UniProt O00506)
# Sequence of STK25 (human) (O00506 whole entry, looked up): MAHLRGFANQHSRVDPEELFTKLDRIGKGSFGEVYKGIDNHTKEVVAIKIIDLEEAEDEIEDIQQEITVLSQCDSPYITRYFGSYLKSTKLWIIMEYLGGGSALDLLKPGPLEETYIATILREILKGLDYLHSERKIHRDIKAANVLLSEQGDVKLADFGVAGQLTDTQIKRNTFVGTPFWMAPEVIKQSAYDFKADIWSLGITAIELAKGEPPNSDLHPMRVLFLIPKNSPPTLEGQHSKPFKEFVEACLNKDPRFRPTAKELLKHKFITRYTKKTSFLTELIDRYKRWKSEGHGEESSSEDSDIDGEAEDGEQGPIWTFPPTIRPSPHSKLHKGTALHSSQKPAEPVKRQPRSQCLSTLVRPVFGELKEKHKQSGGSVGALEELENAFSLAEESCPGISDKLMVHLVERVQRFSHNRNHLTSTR
# NEK3 (human) = NEK3 (human) (UniProt P51956)
# NLK (human) = NLK (human) (UniProt Q9UBE8)
# PKN2 (human) = PKN2 (human) (UniProt Q16513)
# [3] = system: PIK3CA (human), P42336 [M1043I]
# NTRK2 (human) = NTRK2 (human) (UniProt Q16620)
# CSNK1G1 (human) = CSNK1G1 (human) (UniProt Q9HCP0)
# PTK2 (human) = PTK2 (human) (UniProt Q05397)
# MAP4K5 (human) = MAP4K5 (human) (UniProt Q9Y4K4)
# PRKACA (human) = PRKACA (human) (UniProt P17612)
# [4] = system: KIT (human), P10721 [L576P]
# CHEK2 (human) = CHEK2 (human) (UniProt O96017)
# Sequence of CHEK2 (human) (O96017 whole entry, looked up): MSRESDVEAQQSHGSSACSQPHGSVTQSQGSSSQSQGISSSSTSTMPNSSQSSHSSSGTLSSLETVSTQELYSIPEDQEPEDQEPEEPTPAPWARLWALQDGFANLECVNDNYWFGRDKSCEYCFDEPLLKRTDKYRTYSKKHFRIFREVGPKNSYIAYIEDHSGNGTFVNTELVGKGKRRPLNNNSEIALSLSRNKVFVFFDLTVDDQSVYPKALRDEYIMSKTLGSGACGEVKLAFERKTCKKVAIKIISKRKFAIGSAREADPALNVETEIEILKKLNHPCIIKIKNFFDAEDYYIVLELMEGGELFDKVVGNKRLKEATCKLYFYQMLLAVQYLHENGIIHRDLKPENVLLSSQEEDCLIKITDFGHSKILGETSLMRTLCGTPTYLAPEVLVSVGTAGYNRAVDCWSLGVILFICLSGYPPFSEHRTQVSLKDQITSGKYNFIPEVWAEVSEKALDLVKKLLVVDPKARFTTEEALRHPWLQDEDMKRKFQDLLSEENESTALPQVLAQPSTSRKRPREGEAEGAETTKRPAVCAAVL
# PIK3C2B (human) = PIK3C2B (human) (UniProt O00750)
# CDK16 (human) = CDK16 (human) (UniProt Q00536)
# [5] = system: FLT3 (human), P36888 [R834Q]
# PDGFRA (human) = PDGFRA (human) (UniProt P16234)
# [6] = system: MET (human), P08581 [Y1235D]
# CDK15 (human) = CDK15 (human) (UniProt Q96Q40)
# MAP3K3 (human) = MAP3K3 (human) (UniProt Q99759)
# Sequence of MAP3K3 (human) (Q99759 whole entry, looked up): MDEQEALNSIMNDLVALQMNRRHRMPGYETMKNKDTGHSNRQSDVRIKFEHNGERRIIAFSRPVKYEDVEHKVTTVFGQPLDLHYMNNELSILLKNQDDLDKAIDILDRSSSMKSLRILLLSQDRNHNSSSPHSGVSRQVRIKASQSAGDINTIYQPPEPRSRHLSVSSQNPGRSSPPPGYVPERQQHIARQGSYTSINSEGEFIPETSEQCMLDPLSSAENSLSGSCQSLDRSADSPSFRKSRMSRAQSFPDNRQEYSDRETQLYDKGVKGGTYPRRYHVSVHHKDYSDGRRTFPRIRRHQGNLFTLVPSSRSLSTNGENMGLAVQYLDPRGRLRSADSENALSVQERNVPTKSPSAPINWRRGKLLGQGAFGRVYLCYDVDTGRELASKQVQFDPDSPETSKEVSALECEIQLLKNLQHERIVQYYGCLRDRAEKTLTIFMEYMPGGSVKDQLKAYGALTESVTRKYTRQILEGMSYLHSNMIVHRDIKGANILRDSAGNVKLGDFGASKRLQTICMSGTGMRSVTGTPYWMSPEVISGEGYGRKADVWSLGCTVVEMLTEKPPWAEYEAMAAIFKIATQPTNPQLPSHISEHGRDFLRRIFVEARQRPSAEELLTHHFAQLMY
# MAP3K5 (human) = MAP3K5 (human) (UniProt Q99683)
# Sequence of MAP3K5 (human) (Q99683 whole entry, looked up): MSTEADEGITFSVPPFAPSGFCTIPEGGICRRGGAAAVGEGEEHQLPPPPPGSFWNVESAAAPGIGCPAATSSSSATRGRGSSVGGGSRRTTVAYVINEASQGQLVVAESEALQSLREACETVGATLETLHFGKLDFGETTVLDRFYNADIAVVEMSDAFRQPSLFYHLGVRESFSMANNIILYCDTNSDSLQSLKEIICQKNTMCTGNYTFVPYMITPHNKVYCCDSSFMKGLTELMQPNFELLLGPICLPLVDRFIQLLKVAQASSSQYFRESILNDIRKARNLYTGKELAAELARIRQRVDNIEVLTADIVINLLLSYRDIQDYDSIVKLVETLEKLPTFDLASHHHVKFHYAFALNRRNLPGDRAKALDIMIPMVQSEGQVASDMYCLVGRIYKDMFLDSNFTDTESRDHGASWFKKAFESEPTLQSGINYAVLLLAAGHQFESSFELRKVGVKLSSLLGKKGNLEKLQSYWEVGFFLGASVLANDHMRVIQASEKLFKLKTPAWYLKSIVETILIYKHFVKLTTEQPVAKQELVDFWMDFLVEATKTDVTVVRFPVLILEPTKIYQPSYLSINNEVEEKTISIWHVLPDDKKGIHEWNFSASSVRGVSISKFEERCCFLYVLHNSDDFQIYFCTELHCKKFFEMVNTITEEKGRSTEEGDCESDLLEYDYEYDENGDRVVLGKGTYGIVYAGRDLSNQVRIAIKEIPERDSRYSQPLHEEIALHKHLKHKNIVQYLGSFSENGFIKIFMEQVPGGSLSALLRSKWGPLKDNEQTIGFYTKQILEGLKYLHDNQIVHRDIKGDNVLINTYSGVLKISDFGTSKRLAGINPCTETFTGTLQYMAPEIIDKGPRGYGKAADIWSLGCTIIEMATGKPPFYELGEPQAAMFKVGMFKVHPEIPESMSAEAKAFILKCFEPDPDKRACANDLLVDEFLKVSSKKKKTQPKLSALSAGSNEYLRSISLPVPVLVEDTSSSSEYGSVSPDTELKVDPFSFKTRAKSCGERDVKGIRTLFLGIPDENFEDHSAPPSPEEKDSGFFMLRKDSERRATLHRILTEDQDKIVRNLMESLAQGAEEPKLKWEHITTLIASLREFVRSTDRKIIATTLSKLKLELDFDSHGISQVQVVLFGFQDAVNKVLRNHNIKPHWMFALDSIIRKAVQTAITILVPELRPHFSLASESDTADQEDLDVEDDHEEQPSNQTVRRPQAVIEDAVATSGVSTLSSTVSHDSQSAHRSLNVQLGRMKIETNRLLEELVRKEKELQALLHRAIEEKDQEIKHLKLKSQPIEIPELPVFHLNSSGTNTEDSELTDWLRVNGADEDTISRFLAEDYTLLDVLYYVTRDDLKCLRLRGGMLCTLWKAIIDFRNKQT
# NTRK3 (human) = NTRK3 (human) (UniProt Q16288)
# MAPK13 (human) = MAPK13 (human) (UniProt O15264)
# Sequence of MAPK13 (human) (O15264 whole entry, looked up): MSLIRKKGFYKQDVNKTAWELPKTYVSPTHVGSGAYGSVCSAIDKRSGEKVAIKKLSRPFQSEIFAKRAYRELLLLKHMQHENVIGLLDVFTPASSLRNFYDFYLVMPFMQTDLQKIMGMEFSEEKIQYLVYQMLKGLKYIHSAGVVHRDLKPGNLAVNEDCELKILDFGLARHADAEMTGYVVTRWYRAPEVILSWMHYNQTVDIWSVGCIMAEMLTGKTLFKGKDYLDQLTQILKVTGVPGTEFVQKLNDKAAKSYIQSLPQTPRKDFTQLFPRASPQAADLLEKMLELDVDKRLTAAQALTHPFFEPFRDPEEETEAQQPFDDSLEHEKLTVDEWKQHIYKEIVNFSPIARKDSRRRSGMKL
# [7] = system: LRRK2 (human), Q5S007 [G2019S]
# CDC42BPB (human) = CDC42BPB (human) (UniProt Q9Y5S2)
# WEE2 (human) = WEE2 (human) (UniProt P0C1S8)
# AXL (human) = AXL (human) (UniProt P30530)
# AAK1 (human) = AAK1 (human) (UniProt Q2M2I8)
# MARK1 (human) = MARK1 (human) (UniProt Q9P0L2)
# Sequence of PLK3 (human) (Q9H4B4 whole entry, looked up): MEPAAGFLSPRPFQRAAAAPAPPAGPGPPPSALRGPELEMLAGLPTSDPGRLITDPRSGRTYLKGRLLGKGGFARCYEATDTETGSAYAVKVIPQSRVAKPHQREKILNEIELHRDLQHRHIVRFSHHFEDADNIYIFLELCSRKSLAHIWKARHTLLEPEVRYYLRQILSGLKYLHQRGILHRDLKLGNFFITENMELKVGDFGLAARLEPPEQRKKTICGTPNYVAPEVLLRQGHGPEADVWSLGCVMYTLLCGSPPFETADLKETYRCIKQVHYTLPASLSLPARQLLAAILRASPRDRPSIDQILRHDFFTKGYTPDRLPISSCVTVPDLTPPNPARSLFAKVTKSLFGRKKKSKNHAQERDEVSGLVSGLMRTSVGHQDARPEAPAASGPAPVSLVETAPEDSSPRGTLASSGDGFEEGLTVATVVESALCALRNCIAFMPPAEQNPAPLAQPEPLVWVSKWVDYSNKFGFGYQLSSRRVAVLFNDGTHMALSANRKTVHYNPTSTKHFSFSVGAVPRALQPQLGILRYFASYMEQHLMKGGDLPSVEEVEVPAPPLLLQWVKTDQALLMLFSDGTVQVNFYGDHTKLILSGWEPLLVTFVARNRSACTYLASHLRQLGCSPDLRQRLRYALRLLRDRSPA
smiles,measurement,setting,value
Cn1c2ccccc2c2c3c(c4c5ccccc5n(CCC#N)c4c21)CNC3=O,"kinase still bound, per cent of control",ACVR1B (human),85%
same,"kinase still bound, per cent of control",PAK4 (human),4%
same,"kinase still bound, per cent of control",PLK3 (human),100%
same,"kinase still bound, per cent of control",CLK3 (human),94%
same,"kinase still bound, per cent of control",CAMK2A (human),27%
same,"kinase still bound, per cent of control",RPS6KA3 KD1 (human),25%
same,"kinase still bound, per cent of control",MAPK11 (human),97%
same,"kinase still bound, per cent of control",[1],100%
same,"kinase still bound, per cent of control",[2],77%
same,"kinase still bound, per cent of control",AKT1 (human),100%
same,"kinase still bound, per cent of control",NEK1 (human),99%
same,"kinase still bound, per cent of control",CRK2 (P.falciparum),85%
same,"kinase still bound, per cent of control",MAPK1 (human),100%
same,"kinase still bound, per cent of control",STK25 (human),100%
same,"kinase still bound, per cent of control",NEK3 (human),100%
same,"kinase still bound, per cent of control",NLK (human),100%
same,"kinase still bound, per cent of control",PKN2 (human),12%
same,"kinase still bound, per cent of control",[3],93%
same,"kinase still bound, per cent of control",NTRK2 (human),1.2%
same,"kinase still bound, per cent of control",CSNK1G1 (human),100%
same,"kinase still bound, per cent of control",PTK2 (human),73%
same,"kinase still bound, per cent of control",MAP4K5 (human),7.8%
same,"kinase still bound, per cent of control",PRKACA (human),100%
same,"kinase still bound, per cent of control",[4],46%
same,"kinase still bound, per cent of control",CHEK2 (human),31%
same,"kinase still bound, per cent of control",PIK3C2B (human),100%
same,"kinase still bound, per cent of control",CDK16 (human),93%
same,"kinase still bound, per cent of control",[5],12%
same,"kinase still bound, per cent of control",PDGFRA (human),100%
same,"kinase still bound, per cent of control",[6],80%
same,"kinase still bound, per cent of control",CDK15 (human),100%
same,"kinase still bound, per cent of control",MAP3K3 (human),2.1%
same,"kinase still bound, per cent of control",MAP3K5 (human),56%
same,"kinase still bound, per cent of control",NTRK3 (human),0.15%
same,"kinase still bound, per cent of control",MAPK13 (human),100%
same,"kinase still bound, per cent of control",[7],9.4%
same,"kinase still bound, per cent of control",CDC42BPB (human),100%
same,"kinase still bound, per cent of control",WEE2 (human),100%
same,"kinase still bound, per cent of control",AXL (human),72%
same,"kinase still bound, per cent of control",AAK1 (human),0.55%
same,"kinase still bound, per cent of control",MARK1 (human),64%
